The record followed here is US10065941B2, “Aminotriazine derivative and pharmaceutical composition comprising the same” (Shionogi & Co., Ltd., priority 2013, dated 2018).

pIC50: −log10 of the molar value.

For data set [1], the target named is human P2X3 receptor (Homo sapiens (Human), UniProt P56373). The data set can be described thus: Evaluation of human P2X3 receptor inhibitory activity (Test Example 1). It is filed as cell-based. Conditions: C6BU-1 cell transfected with human P2X3 receptor gene, FLIPR 384. Summed up: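 C6BU-1 cells stably expressing human P2X3, loaded with 4 μM Fluo-3-AM 1 h at 37 °C, preincubated 5 min with test compound, then stimulated with 150 nM ATP solution (stock, pre-dispense) and monitored by FLIPR for 4 min. IC50 derived from maximum fluorescence ratio (post-ATP peak over baseline).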

The target in data set [2] is rat P2X3 receptor (Rattus norvegicus (Rat), UniProt P49654). The data set is described as follows: Evaluation of rat P2X3 receptor inhibitory activity (Test Example 3). Type of data set: cell-based. Conditions: rat P2X3 receptor gene expressed in C6BU-1 cell; read-out: ratP2X3 IC50. How it is done:
Rat P2X3 receptor gene (GenBank accession number NM_031075) was expressed in C6BU-1 cell. The C6BU-1 cells were seeded in a 96-well microtiter plate at a concentration of 2500 cells/well and cultured in the medium (7.0% fetal bovine serum, 7.0% horse serum, and 1% antibiotic and antifungal in DMEM) for one day at 37° C. under 5% carbon dioxide atmosphere. The plasmid was transfected into the cells using transfection reagent FuGENE6 (Promega). The transfected cells were cultured in the medium for one day at 37° C. under 5% carbon dioxide atmosphere. […] Measurement of fluorescence intensity by FDSS 3000 was started, and 40 μL of DMSO solutions containing different concentrations of the test compound as prepared by dilution with dilution buffer (20 mM HEPES, 137 mM NaCl, 5.27 mM KCl, 0.9 mM MgCl2, 1.26 mM CaCl2, 5.6 mM D-glucose, 2.5 mM probenecid, 0.1% Pluronic F-127, pH7.5) were dispensed to each well through the built-in automatic dispenser. Five minutes after, 50 nM ATP solution (50 μL) prepared by dilution with the dilution buffer was dispensed through the built-in automatic dispenser, and the measurement of fluorescence intensity was continued for 4 min. For each well, the specific maximum fluorescence intensity was calculated as the ratio of the maximum fluorescence intensity after addition of the ATP solution to the fluorescence intensity at the starting of the measurement. […]

Data set [3] is described as follows: Metabolism stability test, pooled human hepatic microsomes (Test Example 11). It is filed as in vitro ADME. Conditions: human liver microsomes, 30 minutes, compound concentration 0.5 μmol/L. On the procedure:
Using commercially available pooled human hepatic microsomes, a test compound is reacted for a constant time, a remaining rate is calculated by comparing a reacted sample and an unreacted sample, thereby, a degree of metabolism in liver is assessed.
A reaction was performed (oxidative reaction) at 37° C. for 0 minute or 30 minutes in the presence of 1 mmol/L NADPH in 0.2 mL of a buffer (50 mmol/L tris-HCl pH 7.4, 150 mmol/L potassium chloride, 10 mmol/L magnesium chloride) containing 0.5 mg protein/mL of human liver microsomes. After the reaction, 50 μL of the reaction solution was added to 100 μL of a methanol/acetonitrile=1/1 (v/v), mixed and centrifuged at 3000 rpm for 15 minutes. The test compound in the supernatant was quantified by LC/MS/MS, and a remaining amount of the test compound after the reaction was calculated, letting a compound amount at 0 minute reaction time to be 100%.
The remaining rate at the compound concentration 0.5 μmol/L are shown below.

Data set [4] addresses human ether-a-go-go related gene (hERG) channel (Homo sapiens (Human), UniProt Q12809). The data set is described as follows: hERG test, whole cell patch clamp in CHO cells (Test Example 13). Type of data set: cell-based. As to conditions: CHO cells expressing hERG channel, tail peak current, 10 minutes. An excerpt:
For the purpose of assessing risk of an electrocardiogram QT interval prolongation of the compound of the present invention, effects of the compound of the present invention on delayed rectifier K+ current (IKr), which plays an important role in the ventricular repolarization process, was studied using CHO cells expressing human ether-a-go-go related gene (hERG) channel.
After a cell was retained at a membrane potential of −80 mV by whole cell patch clamp method using an automated patch clamp system (QPatch; Sophion Bioscience A/S) and gave a leak potential of −50 mV, IKr induced by depolarization pulse stimulation at +20 mV for 2 seconds and, further, repolarization pulse stimulation at −50 mV for 2 seconds, was recorded. […] From the recording IKr, an absolute value of the tail peak current was measured based on the current value at the resting membrane potential using analysis software (Falster Patch; Sophion Bioscience A/S). Further, the % inhibition relative to the tail peak current before application of the compound of the present invention was calculated, and compared with the vehicle-applied group (0.1% dimethyl sulfoxide solution) to assess influence of the compound of the present invention on IKr.
In general terms: hERG is a cardiac potassium channel; its block is linked to QT prolongation.

The nature of data set [5]: Pharmacokinetic test: bioavailability and total body clearance (Test Example 15). Type of data set: in vivo. As to conditions: SD rats, from AUCs of oral and intravenous groups. How it is done: • (1) Animals: SD rats were used • (2) Breeding conditions: SD rats were allowed to freely take solid food and sterilized tap water. • (3) Dose and grouping: orally or intravenously administered at a predetermined dose; grouping was as follows (Dose depends on the compound)
Oral administration: 1 mg/kg (n=2)
The total body clearance (CLtot) was calculated by dividing the dose by the AUC of the intravenous administration group.

Data set [6] relates to partial sciatic nerve ligation model in rats. The data set is described as follows: Analgesic effect in a Seltzer model, Evaluation (1): mechanical allodynia, von Frey filaments (Test Example 6). It is filed as in vivo. Conditions: rat Seltzer model, reversal of mechanical allodynia (von Frey), single oral administration of 1 mg/kg, at 3 hours. An excerpt: Rats were anaesthetized using isoflurane/O2 inhalation anaesthesia. After induction of anesthesia, the left thigh was shaved. An incision was made in the skin just below the hip bone. The muscle was bluntly dissected to expose the sciatic nerve. One third (⅓) to one half (½) of the sciatic nerve thickness was tightly ligated and the wound was closed. The right thigh is used as a sham-operated control. The right thigh undergoes an identical procedure with the left hind limb, however, the sciatic nerve is not manipulated or ligated.
Two weeks after nerve ligation, the effect on mechanical allodynia was assessed using a series of von Frey filaments. For habituation, the rats were placed into a plastic cage on a wire mesh bottom. The mechanical sensitivity (mechanical threshold) of the hind paws was estimated with a series of von Frey filaments (0.4-26 g). The measurement of mechanical sensitivity of the right and left hind paws was performed to obtain predose mechanical sensitivity. […] On the day before the experiment, the rats were evaluated with a series of von Frey filaments to familiarize them with the test procedure. […] Post-dose mechanical sensitivities of the right and left hind paws were measured at approximately 1 to 5 hours after drug administration. Percent reversal of mechanical allodynia for each rat was calculated using the following formula. […]

human P2X3 receptor, sequence (P56373 whole entry): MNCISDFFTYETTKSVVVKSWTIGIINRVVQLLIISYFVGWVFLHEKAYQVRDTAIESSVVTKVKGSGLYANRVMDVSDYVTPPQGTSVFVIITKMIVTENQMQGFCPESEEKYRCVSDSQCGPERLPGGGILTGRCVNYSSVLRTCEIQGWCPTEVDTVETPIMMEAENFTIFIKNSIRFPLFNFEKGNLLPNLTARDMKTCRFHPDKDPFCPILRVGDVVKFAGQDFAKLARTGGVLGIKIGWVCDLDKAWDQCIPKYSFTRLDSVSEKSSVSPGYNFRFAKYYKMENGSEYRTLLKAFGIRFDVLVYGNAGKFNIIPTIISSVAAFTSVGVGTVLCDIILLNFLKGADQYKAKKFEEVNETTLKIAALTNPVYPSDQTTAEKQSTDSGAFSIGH
rat P2X3 receptor, sequence (P49654 whole entry): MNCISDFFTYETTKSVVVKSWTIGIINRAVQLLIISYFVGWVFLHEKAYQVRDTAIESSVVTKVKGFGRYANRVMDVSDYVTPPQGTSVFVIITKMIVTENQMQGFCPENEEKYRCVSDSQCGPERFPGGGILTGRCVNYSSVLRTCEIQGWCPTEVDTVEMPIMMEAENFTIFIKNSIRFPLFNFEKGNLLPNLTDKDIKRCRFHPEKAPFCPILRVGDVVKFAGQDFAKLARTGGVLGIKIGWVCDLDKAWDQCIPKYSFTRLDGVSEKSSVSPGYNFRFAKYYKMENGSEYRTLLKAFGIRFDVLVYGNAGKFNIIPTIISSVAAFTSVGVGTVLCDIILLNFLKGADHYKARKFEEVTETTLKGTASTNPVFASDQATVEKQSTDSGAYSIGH
human ether-a-go-go related gene (hERG) channel, sequence (Q12809 whole entry): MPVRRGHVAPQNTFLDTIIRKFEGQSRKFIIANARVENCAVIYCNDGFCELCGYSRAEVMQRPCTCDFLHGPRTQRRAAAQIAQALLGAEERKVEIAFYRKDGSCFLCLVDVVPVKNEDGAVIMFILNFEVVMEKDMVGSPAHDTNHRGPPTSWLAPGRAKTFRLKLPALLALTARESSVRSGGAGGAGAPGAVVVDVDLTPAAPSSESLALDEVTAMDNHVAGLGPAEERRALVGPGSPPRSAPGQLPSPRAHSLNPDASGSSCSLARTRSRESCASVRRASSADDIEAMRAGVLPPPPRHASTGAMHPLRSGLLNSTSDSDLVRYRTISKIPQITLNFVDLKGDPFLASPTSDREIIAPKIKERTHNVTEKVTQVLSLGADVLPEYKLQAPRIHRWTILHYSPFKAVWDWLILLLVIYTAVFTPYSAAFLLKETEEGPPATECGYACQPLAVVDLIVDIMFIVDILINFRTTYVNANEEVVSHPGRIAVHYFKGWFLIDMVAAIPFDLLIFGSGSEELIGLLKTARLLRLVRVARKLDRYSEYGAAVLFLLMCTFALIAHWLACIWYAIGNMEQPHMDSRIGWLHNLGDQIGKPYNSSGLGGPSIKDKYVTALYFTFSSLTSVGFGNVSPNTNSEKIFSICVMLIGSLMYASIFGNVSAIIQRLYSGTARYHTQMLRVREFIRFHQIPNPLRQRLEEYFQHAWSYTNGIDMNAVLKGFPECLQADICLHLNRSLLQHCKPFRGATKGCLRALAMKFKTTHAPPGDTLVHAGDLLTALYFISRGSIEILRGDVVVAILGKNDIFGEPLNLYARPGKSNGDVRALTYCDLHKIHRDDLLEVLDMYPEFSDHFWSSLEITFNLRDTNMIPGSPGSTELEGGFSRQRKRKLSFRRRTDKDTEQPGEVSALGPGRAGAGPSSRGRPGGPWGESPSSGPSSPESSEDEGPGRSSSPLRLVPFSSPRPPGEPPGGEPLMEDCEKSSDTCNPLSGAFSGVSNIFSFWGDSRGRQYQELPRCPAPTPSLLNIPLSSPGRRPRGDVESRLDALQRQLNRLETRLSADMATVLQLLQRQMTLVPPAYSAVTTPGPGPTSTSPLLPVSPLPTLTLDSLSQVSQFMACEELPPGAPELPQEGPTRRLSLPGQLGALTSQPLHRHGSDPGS

As for `C[C@@H](C(=O)O)[C@H](C)n1c(=O)[nH]/c(=N\c2ccc(Oc3ccc(F)cn3)c(F)c2)n(Cc2ccc(Cl)cc2)c1=O` [Compound I-002], the pIC50 – broadly, the negative decadic logarithm of the IC50, by convention in mol/L – was 8.30 in data set [1] and 8.22 in data set [2]. Moreover, the “Metabolism Stability (remaining rate)” value in data set [3] was found to be 99%. The “hERG Inhibition” value in data set [4] was 7.3%.

`CC(C)(Cn1c(=O)[nH]/c(=N\c2ccc(Oc3ccc(Cl)cn3)cc2)n(Cc2ccc(Cl)cc2)c1=O)C(=O)O` [Compound I-006] gave a pIC50 in data set [1] of 8.30. Besides, the “hERG Inhibition” value in data set [4] is listed as 5.3%.

For the compound `C[C@@H](Cn1c(=O)[nH]/c(=N\c2ccc(Oc3cccc(Cl)n3)cc2)n(Cc2ccc(Cl)cc2)c1=O)C(=O)O` [Compound I-014], the pIC50 in data set [1] was 8.15. The compound further gave a BA in data set [5] of 106.2%.

`O=C(O)C1(Cn2c(=O)[nH]/c(=N\c3ccc(Oc4cccc(F)n4)cc3)n(Cc3ccc(Cl)cc3)c2=O)CC1` [Compound I-017] gave a pIC50 in data set [1] of 8.22. Besides, in data set [5], the BA turned out to be 80.7%.

`O=c1[nH]/c(=N\c2ccc(Oc3ccc(F)cn3)cc2)n(Cc2ccc(Cl)cc2)c(=O)n1[C@H]1C[C@H](C(=O)O)C1` [Compound I-019] had a pIC50 in data set [1] of 8.15. In data set [6], the “% reversal” value was found to be 27.9%. Further, the “Metabolism Stability (remaining rate)” value in data set [3] is given as 96%.

For `Cc1ccc(Cn2c(=O)n(C[C@H](C)C(=O)O)c(=O)[nH]/c2=N\c2ccc(Oc3ccc(F)cn3)cc2)cc1` [Compound I-040], the BA in data set [5] is reported as 70.3%.

Take `Cc1ccc(Cn2c(=O)n(C[C@H](C)C(=O)O)c(=O)[nH]/c2=N\c2ccc(Oc3cccc(F)n3)cc2)cc1` [Compound I-057]: in data set [1], the pIC50 was 8.30. For the same compound, in data set [6], the “% reversal” value amounted to 21.4%. In addition, the “Metabolism Stability (remaining rate)” value in data set [3] came to 91%. This compound also registered a BA in data set [5] of 66.4%.

`Cc1ccc(Oc2ccc(/N=c3\[nH]c(=O)n(CC(C)(C)C(=O)O)c(=O)n3Cc3ccc(Cl)cc3)cc2)nc1` [Compound I-058] showed a pIC50 in data set [1] of 8.22. Moreover, in data set [5], the BA is 67.2%.

On to `O=c1[nH]/c(=N\c2ccc(Oc3ncccc3F)cc2)n(Cc2ccc(Cl)cc2)c(=O)n1[C@H]1C[C@H](C(=O)O)C1` [Compound I-063], for which, in data set [1], the pIC50 is 8.05. The “Metabolism Stability (remaining rate)” value in data set [3] stood at 97%.

In turn, `C[C@@H](Cn1c(=O)[nH]/c(=N\c2ccc(Oc3cc(F)ccn3)cc2)n(Cc2ccc(Cl)cc2)c1=O)C(=O)O` [Compound I-070] showed a pIC50 in data set [1] of 8.30. Further, the “Metabolism Stability (remaining rate)” value in data set [3] is listed as 103%.

In data set [1], `C[C@@H](Cn1c(=O)[nH]/c(=N\c2ccc(Oc3ccccn3)cc2)n(Cc2ccc(Cl)cc2)c1=O)C(=O)O` [Compound I-127] showed a pIC50 of 8.40. The same compound returned a BA in data set [5] of 52.8%.

Take `COc1cc(Oc2ccc(/N=c3\[nH]c(=O)n([C@@H](C)[C@@H](C)C(=O)O)c(=O)n3Cc3ccc(Cl)cc3)cc2)ccn1` [Compound R-009]: the pIC50 is 8.15 in data set [1] and 8.40 in data set [2].
